Measured values reported in patent US20250289774A1, “[…] OF A CANNABIDIOL-LIKE CANNABINOID” (Jazz Pharmaceuticals Research UK Limited, priority 2022, published 2025).

Key:
[1] = Stability of Form A to ball milling (XRPD after milling); assay type: physicochemical; settings: 6 minutes at 25 Hz
Protocol: (§1) XRPD analyses were performed using a Panalytical Empyrean diffractometer equipped with a Cu X-ray tube and a PIXcel 1 D-Medipix3 detector system. The samples were analysed at ambient temperature in transmission mode and held between low density PVC films. The XRPD program parameters were: range 3-40° 2θ or 4-40° 2θ, step size 0.01313°, counting time 23 sec, ˜5 min run time. Samples were spun at 60 rpm during data collection. XRPD patterns were sorted, manipulated using HighScore Plus v4.9 software.
A ball mill was used to mimic the effects of grinding that would be experienced during formulation steps such as dry blending and wet granulation.
Approximately 45 mg of crystalline Form A material was added to a milling chamber with an agate milling ball. Using a Retsch MM200 mixer mill, the material was milled for 6 minutes at a frequency of 25 Hz. Periodically, the milling was stopped and powder that adhered to the milling chamber was scraped down. The resultant milled material was analysed using XRPD. Samples were also milled with addition of a small amount of solvent (˜10 μL).

[2] = Stability of 6-OH CBDV Form A to compression (XRPD after pressing); assay type: physicochemical; settings: ~60 mg in KBr pellet die, compressed overnight at ~370 MPa, analysed immediately by XRPD
Protocol: as §1
Crystalline Form A material (˜60 mg) was added to a KBr pellet die and compressed overnight at ˜370 MPa using a hydraulic press. The resultant solid disc was removed from the press and immediately analysed by XRPD.

[3] = tested on: mouse model of generalised seizure; settings: data of PCT/GB2020/052944; cited from earlier work

SMILES	Output Form after milling (XRPD) ([1]; dry ball milling, no solvent)	Output Form after milling (XRPD) ([1]; wet ball milling, water (~10 μL))	Solid form after compression (XRPD) [2]	Anticonvulsant activity [3]
C=C(C)[C@@H]1C[C@H](O)C(C)=C[C@H]1c1c(O)cc(CCC)cc1O [Form A, 6-hydroxy cannabidivarin]	no change in form	no change in form	remained as Form A	–
C=C(C)[C@@H]1C[C@H](O)C(C)=C[C@H]1c1c(O)cc(CCC)cc1O [6-OH CBDV, 6-hydroxy cannabidivarin]	–	–	–	displays anticonvulsant activity
